# Laboratory results published in ChEMBL document CHEMBL1201861, “Genomics of Drug Sensitity in Cancer screening data, Wellcome Trust Sanger Institute”.
# Experiments:
# Type in all cases: functional, cell-based
# COLO-792 = test: cells; settings: Homo sapiens
# Description: SANGER: Inhibition of human COLO-792 cell growth in a cell viability assay.
# COR-L279 = test: SANGER: Inhibition of human COR-L279 cell growth in a cell viability assay.
# Calu-3 = test: cells; settings: Homo sapiens;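 further: growth inhibition of human Calu-3 cells, determined with a cell viability assay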
# Description: SANGER: Inhibition of human Calu-3 cell growth in a cell viability assay.
# D-392MG = test: cells; settings: Homo sapiens
# DMS-273 = test: cells; settings: Homo sapiens
# Description: SANGER: Inhibition of human DMS-273 cell growth in a cell viability assay.
# Daoy = test: cells; settings: Homo sapiens;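 further: daoy cell growth inhibition, read out as cell viability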
# Description: SANGER: Inhibition of human Daoy cell growth in a cell viability assay.
# Daudi = test: cells; settings: Homo sapiens;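 further: growth inhibition of Daudi cells, read out by a viability assay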
# Description: SANGER: Inhibition of human Daudi cell growth in a cell viability assay.
# EB-3 = test: cells; settings: Homo sapiens;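 further: human EB-3 cells, growth inhibition read out via a cell viability assay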
# Description: SANGER: Inhibition of human EB-3 cell growth in a cell viability assay.
# H4 = test: cells; settings: Homo sapiens
# Description: SANGER: Inhibition of human H4 cell growth in a cell viability assay.
# HCC1954 = test: cells; settings: Homo sapiens;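 further: growth inhibition of human HCC1954 cells, read out with a cell viability assay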
# Description: SANGER: Inhibition of human HCC1954 cell growth in a cell viability assay.
# HCC 2998 = test: cells; settings: Homo sapiens;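 further: growth inhibition of human HCC2998 cells, measured with a cell viability read-out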
# Description: SANGER: Inhibition of human HCC2998 cell growth in a cell viability assay.
# HCC38 = test: cells; settings: Homo sapiens;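 further: cell viability assay on the human HCC38 cell line, with IC50 marking the concentration that inhibits cell growth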
# Description: SANGER: Inhibition of human HCC38 cell growth in a cell viability assay.
# HO-1-N-1 = test: cells; settings: Homo sapiens;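 further: growth inhibition of human HO-1-N-1 cells, read out with a cell viability assay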
# Description: SANGER: Inhibition of human HO-1-N-1 cell growth in a cell viability assay.
# HOS = test: cells; settings: Homo sapiens;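 further: growth inhibition of human HOS cells, read out with a cell viability assay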
# Description: SANGER: Inhibition of human HOS cell growth in a cell viability assay.
# HSC-2 = test: cells; settings: Homo sapiens;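 further: growth inhibition of human HSC-2 cells, read out by a cell viability assay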
# Description: SANGER: Inhibition of human HSC-2 cell growth in a cell viability assay.
# Huh-7 = test: cells; settings: Homo sapiens;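 further: HuH-7 cell growth inhibition, read out with a cell viability assay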
# Description: SANGER: Inhibition of human HuH-7 cell growth in a cell viability assay.
# HuP-T3 = test: cells; settings: Homo sapiens;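 further: HuP-T3 cell growth inhibition, read out with a cell viability assay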
# Description: SANGER: Inhibition of human HuP-T3 cell growth in a cell viability assay.
# HuP-T4 = test: cells; settings: Homo sapiens;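 further: cell viability assay measuring how much HuP-T4 cell growth is inhibited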
# Description: SANGER: Inhibition of human HuP-T4 cell growth in a cell viability assay.
# KMS-12-PE = test: cells; settings: Homo sapiens;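 further: growth inhibition of human KMS-12-PE cells, measured with a cell viability assay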
# Description: SANGER: Inhibition of human KMS-12-PE cell growth in a cell viability assay.
# KP-N-YN = test: cells; settings: Homo sapiens;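 further: growth inhibition of KP-N-YN cells, read out with a cell viability assay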
# Description: SANGER: Inhibition of human KP-N-YN cell growth in a cell viability assay.
# KU-19-19 = test: cells; settings: Homo sapiens
# Description: SANGER: Inhibition of human KU-19-19 cell growth in a cell viability assay.
# L-540 = test: cells; settings: Homo sapiens;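 further: growth inhibition of the human L-540 cell line, read out with a viability assay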
# Description: SANGER: Inhibition of human L-540 cell growth in a cell viability assay.
# MC-IXC = test: cells; settings: Homo sapiens;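 further: growth inhibition of MC-IXC cells, read out with a cell viability assay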
# Description: SANGER: Inhibition of human MC-IXC cell growth in a cell viability assay.
# MDA-MB-231 = test: cells; settings: Homo sapiens
# Description: SANGER: Inhibition of human MDA-MB-231 cell growth in a cell viability assay.
# MDA-MB-361 = test: cells; settings: Homo sapiens
# MEL-HO = test: cells; settings: Homo sapiens
# Description: SANGER: Inhibition of human MEL-HO cell growth in a cell viability assay.
# MKN-1 = test: cells; settings: Homo sapiens;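 further: growth inhibition of human MKN1 cells, read out by a cell viability measurement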
# Description: SANGER: Inhibition of human MKN1 cell growth in a cell viability assay.
# NALM-6 = test: cells; settings: Homo sapiens;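 further: growth inhibition of NALM-6 cells, read out with a cell viability assay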
# Description: SANGER: Inhibition of human NALM-6 cell growth in a cell viability assay.
# NCI-H1436 = test: cells; settings: Homo sapiens;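 further: growth suppression of human NCI-H1436 cells, determined with a cell viability readout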
# Description: SANGER: Inhibition of human NCI-H1436 cell growth in a cell viability assay.
# NCI-H1793 = test: cells; settings: Homo sapiens;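 further: cell growth inhibition, read out by a cell viability assay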
# Description: SANGER: Inhibition of human NCI-H1793 cell growth in a cell viability assay.
# NCI-H2087 = test: cells; settings: Homo sapiens;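 further: growth inhibition determined with a cell viability readout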
# Description: SANGER: Inhibition of human NCI-H2087 cell growth in a cell viability assay.
# NCI-H2196 = test: cells; settings: Homo sapiens;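 further: cell viability assay used as the readout of growth inhibition in NCI-H2196 cells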
# Description: SANGER: Inhibition of human NCI-H2196 cell growth in a cell viability assay.
# NCI-H358 = test: cells; settings: Homo sapiens;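 further: growth inhibition of NCI-H358 human cells, read out with a cell viability assay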
# Description: SANGER: Inhibition of human NCI-H358 cell growth in a cell viability assay.
# NCI-H460 = test: cells; settings: Homo sapiens;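 further: cell viability assay scoring growth inhibition of human NCI-H460 cells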
# Description: SANGER: Inhibition of human NCI-H460 cell growth in a cell viability assay.
# NCI-H522 = test: cells; settings: Homo sapiens;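 further: cell viability assay measuring growth inhibition of human NCI-H522 cells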
# Description: SANGER: Inhibition of human NCI-H522 cell growth in a cell viability assay.
# NCI-H64 = test: cells; settings: Homo sapiens;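 further: growth inhibition of NCI-H64 cells, read out with a cell viability assay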
# Description: SANGER: Inhibition of human NCI-H64 cell growth in a cell viability assay.
# NCI-H716 = test: cells; settings: Homo sapiens;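 further: growth inhibition of human NCI-H716 cells, measured by a cell viability assay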
# Description: SANGER: Inhibition of human NCI-H716 cell growth in a cell viability assay.
# NCI-H810 = test: cells; settings: Homo sapiens;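 further: IC50 reflects inhibition of cancer cell line growth, read out with a cell viability assay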
# Description: SANGER: Inhibition of human NCI-H810 cell growth in a cell viability assay.
# OAW-42 = test: cells; settings: Homo sapiens;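 further: growth inhibition of OAW-42 cells, read out with a cell viability assay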
# Description: SANGER: Inhibition of human OAW-42 cell growth in a cell viability assay.
# SCLC-21H = test: cells; settings: Homo sapiens;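 further: growth inhibition of cultured human SCLC-21H cells, read out with a cell viability assay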
# Description: SANGER: Inhibition of human SCLC-21H cell growth in a cell viability assay.
# SIMA = test: cells; settings: Homo sapiens;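 further: growth inhibition of SIMA cells, measured with a cell viability readout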
# Description: SANGER: Inhibition of human SIMA cell growth in a cell viability assay.
# SK-MM-2 = test: cells; settings: Homo sapiens;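 further: growth inhibition of human SK-MM-2 cells, read out with a cell viability assay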
# Description: SANGER: Inhibition of human SK-MM-2 cell growth in a cell viability assay.
# SK-OV-3 = test: cells; settings: Homo sapiens;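 further: growth inhibition of SK-OV-3 human cells, read out with a cell viability assay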
# Description: SANGER: Inhibition of human SK-OV-3 cell growth in a cell viability assay.
# SN12C = test: cells; settings: Homo sapiens;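 further: growth inhibition of human SN12C cells, measured by a cell viability assay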
# Description: SANGER: Inhibition of human SN12C cell growth in a cell viability assay.
# SNU-C1 = test: cells; settings: Homo sapiens;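 further: growth inhibition of SNU-C1 human cells, read out by a cell viability assay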
# Description: SANGER: Inhibition of human SNU-C1 cell growth in a cell viability assay.
# SR = test: cells; settings: Homo sapiens
# Description: SANGER: Inhibition of human SR cell growth in a cell viability assay.
# ST486 = test: SANGER: Inhibition of human ST486 cell growth in a cell viability assay.
# SW1710 = test: cells; settings: Homo sapiens;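 further: growth inhibition of SW1710 cells, determined with a cell viability assay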
# Description: SANGER: Inhibition of human SW1710 cell growth in a cell viability assay.
# SiHa = test: cells; settings: Homo sapiens;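 further: Viability-based readout of growth inhibition in SiHa cells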
# Description: SANGER: Inhibition of human SiHa cell growth in a cell viability assay.
# 23132-87 = test: cells; settings: Homo sapiens
# Description: SANGER: Inhibition of human 23132-87 cell growth in a cell viability assay.
# 786-0 = test: cells; settings: Homo sapiens
# Description: SANGER: Inhibition of human 786-0 cell growth in a cell viability assay.
# 8305C = test: cells; settings: Homo sapiens
# Description: SANGER: Inhibition of human 8305C cell growth in a cell viability assay.
# A2058 = test: cells; settings: Homo sapiens;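 further: reduction of A2058 cell growth, read out with a viability assay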
# Description: SANGER: Inhibition of human A2058 cell growth in a cell viability assay.
# A2780 = test: cells; settings: Homo sapiens;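 further: growth inhibition of A2780 cells, read out with a cell viability assay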
# Description: SANGER: Inhibition of human A2780 cell growth in a cell viability assay.
# A-427 = test: cells; settings: Homo sapiens;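 further: growth inhibition of human A-427 cells, read out by a cell viability assay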
# Description: SANGER: Inhibition of human A427 cell growth in a cell viability assay.
# A-431 = test: cells; settings: Homo sapiens;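 further: growth inhibition of A-431 cells, determined with a cell viability read-out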
# Description: SANGER: Inhibition of human A431 cell growth in a cell viability assay.
# AN3-CA = test: cells; settings: Homo sapiens;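 further: growth inhibition of human AN3-CA cells measured by a cell viability assay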
# Description: SANGER: Inhibition of human AN3-CA cell growth in a cell viability assay.
# ASPC1 = test: cells; settings: Homo sapiens;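 further: growth inhibition of AsPC-1 cells, read out with a cell viability assay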
# Description: SANGER: Inhibition of human AsPC-1 cell growth in a cell viability assay.
# BCPAP = test: cells; settings: Homo sapiens;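 further: growth inhibition of BCPAP cells, read out in a cell viability assay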
# Description: SANGER: Inhibition of human BCPAP cell growth in a cell viability assay.
# BEN = test: cells; settings: Homo sapiens;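 further: growth inhibition of the BEN cell line, read out with a cell viability assay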
# Description: SANGER: Inhibition of human BEN cell growth in a cell viability assay.
# BOKU = test: cells; settings: Homo sapiens;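 further: growth inhibition of the human BOKU cell line, read out by a cell viability assay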
# Description: SANGER: Inhibition of human BOKU cell growth in a cell viability assay.
# TE-441-T = test: cells; settings: Homo sapiens
# Description: SANGER: Inhibition of human TE-441-T cell growth in a cell viability assay.
# VM-CUB-1 = test: cells; settings: Homo sapiens;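 further: cell viability assay measuring growth inhibition of the human VM-CUB-1 cell line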
# Description: SANGER: Inhibition of human VM-CUB-1 cell growth in a cell viability assay.
# YKG-1 = test: cells; settings: Homo sapiens
# Description: SANGER: Inhibition of human YKG-1 cell growth in a cell viability assay.
# CMK = test: cells; settings: Homo sapiens
# Description: SANGER: Inhibition of human CMK cell growth in a cell viability assay.
smiles,measurement,setting,value
CCNC(=O)c1noc(-c2cc(C(C)C)c(O)cc2O)c1-c1ccc(CN2CCOCC2)cc1 [LUMINESPIB],IC50,COLO-792,88.5 nM
same,IC50,COR-L279,158 nM
same,IC50,Calu-3,37.9 nM
same,IC50,D-392MG,38.4 nM
same,IC50,DMS-273,34.8 nM
same,IC50,Daoy,6.95 nM
same,IC50,Daudi,33.8 nM
same,IC50,EB-3,224 nM
same,IC50,H4,13.7 nM
same,IC50,HCC1954,> 256 nM
same,IC50,HCC 2998,29.4 nM
same,IC50,HCC38,37.7 nM
same,IC50,HO-1-N-1,25.5 nM
same,IC50,HOS,1.38 nM
same,IC50,HSC-2,5.18 nM
same,IC50,Huh-7,70.3 nM
same,IC50,HuP-T3,16.5 nM
same,IC50,HuP-T4,65.9 nM
same,IC50,KMS-12-PE,129 nM
same,IC50,KP-N-YN,> 256 nM
same,IC50,KU-19-19,108 nM
same,IC50,L-540,> 256 nM
same,IC50,MC-IXC,17.4 nM
same,IC50,MDA-MB-231,90.8 nM
same,IC50,MDA-MB-361,58.7 nM
same,IC50,MEL-HO,16.4 nM
same,IC50,MKN-1,49.3 nM
same,IC50,NALM-6,0.842 nM
same,IC50,NCI-H1436,218 nM
same,IC50,NCI-H1793,> 256 nM
same,IC50,NCI-H2087,32.9 nM
same,IC50,NCI-H2196,217 nM
same,IC50,NCI-H358,42.1 nM
same,IC50,NCI-H460,13.4 nM
same,IC50,NCI-H522,19.4 nM
same,IC50,NCI-H64,> 256 nM
same,IC50,NCI-H716,> 256 nM
same,IC50,NCI-H810,17.2 nM
same,IC50,OAW-42,37.5 nM
same,IC50,SCLC-21H,> 256 nM
same,IC50,SIMA,> 256 nM
same,IC50,SK-MM-2,111 nM
same,IC50,SK-OV-3,6.3 nM
same,IC50,SN12C,247 nM
same,IC50,SNU-C1,> 256 nM
same,IC50,SR,27.9 nM
same,IC50,ST486,55.3 nM
same,IC50,SW1710,1.86 nM
same,IC50,SiHa,> 256 nM
same,IC50,23132-87,105 nM
same,IC50,786-0,6.63 nM
same,IC50,8305C,30.7 nM
same,IC50,A2058,29.3 nM
same,IC50,A2780,17.1 nM
same,IC50,A-427,13 nM
same,IC50,A-431,6.07 nM
same,IC50,AN3-CA,10.2 nM
same,IC50,ASPC1,> 256 nM
same,IC50,BCPAP,26.5 nM
same,IC50,BEN,116 nM
same,IC50,BOKU,66.7 nM
same,IC50,TE-441-T,49.3 nM
same,IC50,VM-CUB-1,53.1 nM
same,IC50,YKG-1,11.6 nM
same,IC50,CMK,< 1 nM
